From a melting point compilation (Tetko et al.; mined from patent text by program, amines drawn as free bases though some values may be those of a salt)

Row | melting point [°C] | SMILES
1 | 155 to 157 | COc1cc2c(-c3ccnc(NN)c3)c(CO)c(CO)cc2cc1OCc1ccccc1
2 | 158 to 160 | CCCNc1ccc2oc([N+](=O)[O-])c(-c3ccccc3)c2c1
3 | 120 to 132 | CCN1CCc2cc(Nc3ncc(Cl)c(Nc4ccccc4C(=O)NC)n3)c(OC)cc2CC1=O
4 | 158 | COc1ccc(C(=O)Nc2ccc3ccc(S(=O)CCN(C)C)nc3n2)cc1 (stereo unspecified)
5 | 116 to 118 | O=C(Cc1cccnn1)c1ccc(F)cc1F
6 | 173 to 175 | CC(=O)Oc1ccccc1C(=O)Nc1ncc(S(C)(=O)=O)s1
7 | 179 to 180 | N#Cc1cccc(Oc2ncccc2C(=O)NCc2ccc(S(N)(=O)=O)cc2)c1
8 | 74 to 75 | COC(=O)C(NC(=O)OCc1ccccc1)OC (stereo unspecified)
9 | 142 | O=C(c1nc(-c2ccccc2)nc2ccccc12)N1CCCC(CO)C1 (stereo unspecified)
10 | 67 | CCOC(=O)c1cnn(-c2ccccc2)c1OC
11 | 152 | O=C(Nc1ccc(-c2ccccc2)cc1)c1cccc([N+](=O)[O-])c1O
12 | 162 to 164 | Cc1oc(-c2ccccc2)nc1COc1ccc(CCCC2OC(=O)NC2=O)cc1O (stereo unspecified)
13 | 227 to 229 | COc1ccc(C(=O)c2c(N)sc3c2CCCC3)c2ccccc12
14 | 33 to 34 | CCc1occc(=O)c1OCc1ccccc1
15 | 139 to 140 | COc1ccc(S(=O)(=O)O)cc1OC(=O)c1ccccc1
16 | 196 to 199 | CC(C)(O)Cn1cnc2c(Cl)nc3ccccc3c21
17 | 124 to 131 | COc1cc(C(=O)NS(=O)(=O)c2ccccc2C)ccc1Cc1cn(C)c2ccc(CCNC(=O)N(C)C)cc12
18 | 120 to 121 | CC(O)CCc1ccc2c(c1)Cc1ccccc1-2 (stereo unspecified)
19 | 162 | O=c1nc(-c2cccc(Br)c2)sc2ccccc12
20 | 105 to 107 | O=c1cc(-c2ccoc2)c2ccc(COc3cc(F)cc(-c4ccccc4)c3)cc2o1
21 | 93 to 95 | COC(=O)c1ccccc1COc1cccc2oc(C)cc12
22 | > 245 | CN[C@@H]1COc2cc(Cl)cc(-c3ccccc3C)c2O1
23 | 98 to 100 | O=C(CNC(=O)c1ccc([N+](=O)[O-])c(I)c1)OCc1ccccc1

The remaining lines, values behind:

Row | SMILES | melting point [°C]
24 | CONC(=O)N1N=C(c2ccc([N+](=O)[O-])c(C)c2)c2cc3c(cc2CC1C)OCO3 (stereo unspecified) | 192 to 195
25 | c1cc(-c2cn([C@H]3CN4CCC3CC4)nn2)ccn1 | 150
26 | O=Cc1c[nH]c2ncc(-c3cccc(N4CCN(C(=O)C5CCNCC5)CC4)c3)nc12 | > 300
27 | CS(=O)(=O)Nn1c(=O)[nH]c2cc([N+](=O)[O-])c(N3CCOCC3)cc2c1=O | > 260
28 | CCCNC(=O)Oc1ccc2c(ccn2N(CCC)c2ccncc2)c1 | 120 to 122
29 | CC=CCONC(C)=C1C(=O)CC(CCSc2ccc(C(F)(F)F)cc2)CC1=O (stereo unspecified) | 72 to 73
30 | O=C(Cl)c1cc(C(=O)Cl)c(C#Cc2ccccc2)cc1C#Cc1ccccc1 | 157 to 160
31 | COc1nscc1[N+](=O)[O-] | 118 to 122
32 | CCC(CC)n1c(=O)sc2c(=O)[nH]c(N)nc21 | > 232
33 | CC(=O)OCC1OC(n2cc(C#N)c3c(Cl)nc(Cl)nc32)C(OC(C)=O)C1OC(C)=O (stereo unspecified) | 70 to 75
34 | COc1ccc(SC2(CCCC#Cc3ccc(Cl)cc3)SC(=O)NC2=O)cc1 (stereo unspecified) | 106 to 109
35 | Clc1cc(NC2CCCC2)nc(NC2CCCC2)n1 | 94 to 98
36 | CC(C)(CO)c1ccc2c(c1)OC(C(F)(F)F)C(C(=O)O)=C2 (stereo unspecified) | 229 to 230
37 | c1csc(-c2nc(COc3ccc(CCCCn4ccnc4)cc3)cs2)c1 | 108 to 109
38 | CCCc1nc(C(C)=O)c(C(=O)OCC)[nH]1 | 76 to 78
39 | Nc1ccc(Sc2ccc(Cl)cc2)nc1 | 55 to 57
40 | CC(=O)Nc1ccc(OS(N)(=O)=O)cc1 | 180 to 181
41 | CC12CCC3c4ccccc4CCC3C1CCC2NCc1ccccc1 (stereo unspecified) | 71 to 74
42 | CCCCC(CNC(C)=O)(Cn1cncn1)c1ccccc1 (stereo unspecified) | 112 to 115
43 | CCCCCCCN(CC)C(=O)CCCc1ccc(NS(C)(=O)=O)cc1 | 54 to 55
44 | CCCCOc1ncc(C(=O)N[C@@H]2CCCC[C@H]2O)cc1-c1cc(C(F)(F)F)ccc1F | 172 to 178
45 | N=C(N)NCc1ccc(N)c(I)c1 | 135 to 137
46 | CO[C@@H]1CN(CCCNc2nccc(=O)[nH]2)CC[C@@H]1NC(=O)c1cc(Cl)c(N)c2c1OC(C)(C)C2 | 164
47 | Cc1ccc(Cn2cc(C(=O)C(=O)NC3=CC(=O)OC3)c3ccc(F)cc32)cc1 | 218 to 220

Row | SMILES | melting point [°C]
48 | CC(C)(C)c1ccc(S(=O)(=O)n2c(CCC(=O)O)cc3cc(Cl)ccc32)cc1 | 169 to 171
49 | CC#CCOc1ccc(S(=O)(=O)C(C(=O)NO)C2CCN(Cc3ccc(OC)cc3)CC2)cc1 (stereo unspecified) | 138
50 | CCSc1cc2ncc(C#N)c(Nc3cc(OC)c(Cl)cc3Cl)c2cc1OC | 212 to 214
51 | O=C(O)CC1CCCc2c1n(Cc1ccc(F)cc1)c1c(F)cc(F)cc21 (stereo unspecified) | 195 to 196
52 | CC(Br)c1ccc2occ(C#N)c(=O)c2c1 (stereo unspecified) | 162 to 164
53 | CCON=C(CC)C1=C(O)CC(c2ccc(NS(C)(=O)=O)cc2)CC1=O (stereo unspecified) | 115 to 116
54 | CC(C)=NNc1cnn(-c2cccc(C(F)(F)F)c2)c(=O)c1 | 255 to 257
55 | NC(=O)c1cccc2c3c(cc([N+](=O)[O-])c12)N(C(=O)C(F)(F)F)CC3CCl (stereo unspecified) | 272 to 277
56 | Cc1ccc(C)n1CCNC(=O)CN(C)C | 63 to 65
57 | O=C1OCCN1CCCn1ccnc1[N+](=O)[O-] | 89 to 91
58 | COc1ccc(CNc2cc(Cn3c(C(=O)c4cc(C)cc(C)c4)c(C(C)C)c(=O)[nH]c3=O)cc(F)n2)cc1 | 120 to 122
59 | Cn1cc(S(C)(=O)=O)c(=O)c2ccc(C(F)(F)F)cc21 | 300 to 301
60 | CCc1nc2cc(C(=O)O)c(Cl)cc2n1-c1ccc(CCNC(=O)NS(=O)(=O)c2ccc(C)cc2)cc1 | 145 to 150
61 | CC1(C)Sc2cc(Cl)ccc2C2=NN(C(=O)Nc3ccc(C(F)(F)F)cc3)CC21 (stereo unspecified) | 200 to 202
62 | CSCCCNC(=O)N(O)C[C@@H]1C[C@H]1c1ccccc1 (relative stereo) | 103 to 104
63 | COC(=O)[C@@H]1C[C@H](C(=O)OC(C)(C)C)N(C(=O)CNC(=O)OC(C)(C)C)[C@@H]1c1ccccc1F (racemic) | 142
64 | CC(=O)N1CCc2cccc(Cl)c2CC1 | 64 to 66
65 | CC(=O)NC[C@H]1CN(c2ccc(C=C(Br)Br)c(F)c2)C(=O)O1 | 177 to 179
66 | CC(=N)NC(=O)Nc1ccccc1 | 204 to 206
67 | Cc1ccc(C(=O)NCc2ccccc2)cc1-c1nc(NCCCN(C)C)nc2c1CNC(=O)N2c1c(F)cccc1F | 141 to 144
68 | N#Cc1c(Cl)c2ccccc2[nH]c1=O | > 250
69 | CSc1nn2c(N3CCN(C)CC3)cc(C)nc2c1S(=O)(=O)c1cccnc1 | 188 to 189
70 | O=[N+]([O-])c1cccc(-c2cc(Cc3ccc(F)cc3)cc(/C=N/O)c2O)c1 | 157 to 159
71 | O=C(Nc1ccc(C(F)(F)F)cc1)C1=NN(c2ccc(Cl)cc2)C(c2ccco2)C1 (stereo unspecified) | 167 to 171
